Laboratory results published in paper PMC10122656, “Siglec-6 mediates the uptake of extracellular vesicles through a noncanonical glycolipid binding pocket” (Nature Communications, 2023).
Several values for one entry are separate records, joined by “and”; a condition that tells them apart may be missing. Equal values may be shown once.

What was measured:
Test in all cases: Cell assay (liposome/EV binding, flow cytometry)
Format in all cases: cell-based
[1] = target: T1, Siglec-4 R118A CHO cells (Homo sapiens, UniProt P20916, R118A); conditions: Sig-4 R118A†; † after treatment of cells with neuraminidase; 3 mol% ganglioside liposomes; replicates
T1 construct: expressed in transfected cells
T1 sequence (P20916 20-626 R118A): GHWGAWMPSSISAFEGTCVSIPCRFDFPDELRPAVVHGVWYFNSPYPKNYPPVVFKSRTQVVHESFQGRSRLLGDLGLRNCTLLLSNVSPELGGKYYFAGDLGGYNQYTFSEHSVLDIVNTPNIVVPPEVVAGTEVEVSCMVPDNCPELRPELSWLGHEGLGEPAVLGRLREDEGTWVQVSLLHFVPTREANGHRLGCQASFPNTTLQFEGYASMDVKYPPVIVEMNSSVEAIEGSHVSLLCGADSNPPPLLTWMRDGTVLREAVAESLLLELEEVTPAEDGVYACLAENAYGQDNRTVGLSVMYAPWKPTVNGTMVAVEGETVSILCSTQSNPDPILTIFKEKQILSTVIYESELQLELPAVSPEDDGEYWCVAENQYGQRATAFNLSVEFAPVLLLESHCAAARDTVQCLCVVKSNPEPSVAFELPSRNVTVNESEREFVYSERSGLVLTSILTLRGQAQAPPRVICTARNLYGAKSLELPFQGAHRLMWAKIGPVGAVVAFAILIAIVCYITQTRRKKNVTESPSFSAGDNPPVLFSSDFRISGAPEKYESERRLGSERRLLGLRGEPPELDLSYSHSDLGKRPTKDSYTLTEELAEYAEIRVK
Description: (§1) Stock lipids (DSPC, Cholesterol, PEG45–DSPE) solutions were prepared by solvating the lipids in chloroform. An appropriate volume of each lipid solution was transferred to a glass test tube to reach the desired mol% of the component. The chloroform was then removed under N2 gas to yield a lipid thin film. Once dry, 100 µL of DMSO was added to the lipid-containing test tube and then the functional lipids (ganglioside, AF647–PEG45–DSPE, Siglec ligand–PEG45–DSPE, pHrodo–PEG45–DSPE, NGL) was added from their respect DMSO stock solution. The lipid mixture was then stored at −80 °C until completely frozen at which point excess DMSO was removed via lyophilization. Dry lipids were then stored at −80 °C until they were extruded. Lipid suppliers can be found in Supplementary Table 4.
(§2) Dry lipids were then hydrated in 1 mL of PBS. The lipids were then sonicated in a bath sonicator in a cycle of 1 min on, 5 min off for a total of five cycles. Liposomes were then extruded using an Avanti mini extruder first using an 800 nm filter and then a 100 nm filter yielding liposomes that were 130 ± 35 nm (Supplementary Table 5) measured using a Malvern Panalytical Zetasizer Nano S. Liposomes were stored at 4 °C.
(§3) 200,000 cells/well were plated into a 96-well U-bottom microplate and centrifuged at 300 × g for 5 min. The cells were then resuspended in 50 µL of 50 µM liposome/50 µg/mL (protein concentration) of EV solution in DMEM F12 5% FBS and incubated at 37 °C for 30 min. Excess liposomes were then removed via centrifuged at 300 × g for 5 min followed by washing the cells with FACS solution. The cells were then resuspended in (1:250 V/V) anti-Siglec-flow buffer (1% V/V FBS, 500 µM, EDTA Hank’s Balanced Salt Solution pH 7.4), solution and left to rest on ice for 30 min. The cells were then centrifuged again at 300 × g for 5 min and the cells were resuspended in FACS buffer solution and were then ready for analysis by flow cytometry. Information regarding antibody clone, catalog number supplier, label isotype, and dilution can be found in Supplementary Table 6. The Siglec-positive cells were gated on for liposome-binding analysis (Supplementary Fig. 1b).
(§4) Flow cytometry measurements were collected on a 5-laser Fortessa X-20 (BD Bioscience). All the resulting data were analyzed using FlowJo (10.5.3) software (BD Biosciences).
(§5) Cells were harvested and resuspended in complete media with either Neuraminidase A or S. The cells were then placed in a 37 °C shaking incubator for 1 h. The cells were then washed with complete media and then the liposome binding assay was performed as described above.

[2] = target: T2, Siglec-5 WT CHO cells (Homo sapiens, UniProt O15389); conditions: for log10(MFI AF647) of GLL relative to log10(MFI AF647) of the same GLL against UT CHO cells (Fig. 2a): Sig-5 WT†, † after treatment of cells with neuraminidase, 3 mol% ganglioside liposomes, replicates; for GLL binding to Siglec-5 (in words): cell assay, optimized liposomal formulation
T2 construct: expressed in transfected cells
T2 sequence (O15389 17-551): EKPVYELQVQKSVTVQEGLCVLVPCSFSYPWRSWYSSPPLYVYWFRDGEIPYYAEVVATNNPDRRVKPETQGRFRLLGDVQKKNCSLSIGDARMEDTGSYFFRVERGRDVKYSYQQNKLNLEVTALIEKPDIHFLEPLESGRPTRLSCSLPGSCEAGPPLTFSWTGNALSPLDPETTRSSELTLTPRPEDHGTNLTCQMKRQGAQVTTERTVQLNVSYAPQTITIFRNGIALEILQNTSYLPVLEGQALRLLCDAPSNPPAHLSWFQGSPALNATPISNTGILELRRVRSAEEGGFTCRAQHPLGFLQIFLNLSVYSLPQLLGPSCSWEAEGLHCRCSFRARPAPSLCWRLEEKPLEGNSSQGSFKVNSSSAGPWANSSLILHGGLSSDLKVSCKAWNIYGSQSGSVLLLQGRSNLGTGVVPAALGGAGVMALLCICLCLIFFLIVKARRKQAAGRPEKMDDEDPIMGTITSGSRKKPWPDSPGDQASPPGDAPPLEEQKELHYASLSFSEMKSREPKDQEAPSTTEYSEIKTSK
Description: as §1, §2, §3, §4, §5

[3] = target: T3, Siglec-7 R124A CHO cells (Homo sapiens, UniProt Q9Y286, R124A); conditions: Sig-7 R124A†; † after treatment of cells with neuraminidase; 3 mol% ganglioside liposomes; replicates
T3 construct: expressed in transfected cells
Description: as §1, §2, §3, §4, §5

[4] = target: T4, Siglec-7 WT CHO cells (Homo sapiens, UniProt Q9Y286); conditions: for log10(MFI AF647) of GLL relative to log10(MFI AF647) of the same GLL against UT CHO cells (Fig. 2a): Sig-7 WT†, † after treatment of cells with neuraminidase, 3 mol% ganglioside liposomes, replicates
T4 construct: expressed in transfected cells
Description: as §1, §2, §3, §4, §5

T4 sequence (Q9Y286 19-467): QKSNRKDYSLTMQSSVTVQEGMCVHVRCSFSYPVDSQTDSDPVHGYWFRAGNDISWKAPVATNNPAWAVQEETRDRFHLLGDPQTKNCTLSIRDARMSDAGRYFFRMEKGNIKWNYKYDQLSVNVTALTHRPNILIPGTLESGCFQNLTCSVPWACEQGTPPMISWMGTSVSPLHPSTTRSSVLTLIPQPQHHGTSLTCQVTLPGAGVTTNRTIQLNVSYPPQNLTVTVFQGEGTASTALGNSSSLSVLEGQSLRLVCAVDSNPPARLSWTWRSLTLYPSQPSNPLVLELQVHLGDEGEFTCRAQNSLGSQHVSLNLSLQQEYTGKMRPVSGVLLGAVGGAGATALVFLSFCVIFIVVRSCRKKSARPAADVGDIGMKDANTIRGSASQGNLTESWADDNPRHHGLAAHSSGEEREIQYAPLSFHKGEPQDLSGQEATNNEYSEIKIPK
T3 sequence (Q9Y286 19-467 R124A): as the sequence (Q9Y286 19-467) above, with R106A counted along it

| Substance | log10(MFI AF647) of GLL relative to log10(MFI AF647) of the same GLL against UT CHO cells (Fig. 2a) [1] | log10(MFI AF647) of GLL relative to log10(MFI AF647) of the same GLL against UT CHO cells (Fig. 2a) [2] | log10(MFI AF647) of GLL relative to log10(MFI AF647) of the same GLL against UT CHO cells (Fig. 2a) [3] | log10(MFI AF647) of GLL relative to log10(MFI AF647) of the same GLL against UT CHO cells (Fig. 2a) [4] | GLL binding to Siglec-5 (in words) [2] | GLL binding to Siglec-7 with increasing ganglioside content (in words) ([4]; ganglioside titrated in GLLs, cells treated with neuraminidase S) |
| --- | --- | --- | --- | --- | --- | --- |
| GD1a | 0 (2×) and 0.02 and 0.01 | 0.3 and 0.33 and 0.29 | -0.2 and -0.15 and -0.24 | 0.05 and 0.02 and 0.03 | – | – |
| GD1b | 0.08 and 0.05 and 0.02 and 0.03 | 0.26 and 0.29 and 0.23 | -0.23 (2×) and -0.27 | 0 and -0.03 and -0.01 | novel interactions were observed | – |
| GD3 | -0.13 and -0.1 and -0.07 and -0.14 | 0.28 and 0.26 and 0.19 | -0.08 and -0.02 and -0.1 | 1.01 and 0.98 and 1.03 | – | decreased above an optimal ganglioside content |
| GM1 | -0.3 and -0.31 (2×) and -0.32 | 0.35 (2×) and 0.26 | -0.08 and -0.05 and -0.01 | -0.1 and -0.11 and -0.08 | novel interactions were observed | – |
| GM2 | 0 and -0.04 and -0.02 and -0.03 | 0.12 and 0.11 and 0.15 | -0.25 and -0.22 and -0.35 | -0.02 and 0 (2×) | – | – |
| GM3 | -0.24 and -0.19 (2×) and -0.2 | -0.05 (2×) and -0.08 | -0.45 and -0.31 and -0.25 | -0.16 and -0.14 and -0.13 | – | – |
| GM4 | -0.12 (2×) and -0.1 and -0.07 | 0.08 (2×) and 0.05 | -0.35 and -0.25 and -0.4 | -0.07 and -0.06 and -0.04 | – | – |
| GQ1b | -0.12 and -0.13 (2×) and -0.1 | 0.86 (2×) and 0.94 | 0.01 and -0.05 and -0.03 | 1.41 and 1.39 and 1.38 | – | – |
| GT1b | 0.12 and 0.1 and 0.13 and 0.14 | 0.58 and 0.64 and 0.55 | -0.17 and -0.19 and -0.09 | 0.54 and 0.42 and 0.56 | – | – |
